Like-named read-outs stand apart in the source and are kept apart here.
What was measured:
[1] = tested on: aspirin-induced gastric ulcers; assay: aspirin-induced gastric ulcers in rats; format: in vivo, male Sprague-Dawley rats; details: for inhibition of gastric erosions: aspirin treated rats; for % Ulcer Inhibition: Table 1
Experimental: (§1) The following experiment was carried out to evaluate thromboxane receptor involvement in other models of gastro-intestinal ulcer.
[…] In each of these experiments, a dose of SQ 33,961 or vehicle (9.5% ethanol in 0.02% Na2 CO3, pH 9; 5 mL/kg) was administered by intraperitoneal injection 60 minutes before administration of aspirin, aspirin vehicle (1% methyl cellulose; 5 mL/kg, p.o.), indomethacin, or indomethacin vehicle (3.2% Na2 CO3, pH 8; 5 mL/kg, s.c.) in fasted male Sprague-Dawley rats (174-352 g). Three hours later, the rats were sacrificed by CO2 asphyxiation, the stomachs excised and opened, the lumen rinsed with saline, and the number and areas of gastric lesions measured.
*Aspirin Dose = 200 mg/kg, p.o. 1 hour after dosing with Test Agent. Rats
were sacrificed and ulcers measured 3 hours after aspirin administration.

[2] = tested on: indomethacin-induced gastric ulcers; format: in vivo, male Sprague-Dawley rats; details: for inhibition of gastric erosions: indomethacin treated rats; for % Ulcer Inhibition: Table 1
Experimental: as §1
In two studies, SQ 33,961 (1 and 10 mg/kg, i.p.) was evaluated in models of gastric ulcer induced by indomethacin (20 mg/kg, s.c.) and aspirin (200 mg/kg, p.o.). In each of these experiments, a dose of SQ 33,961 or vehicle (9.5% ethanol in 0.02% Na2 CO3, pH 9; 5 mL/kg) was administered by intraperitoneal injection 60 minutes before administration of aspirin, aspirin vehicle (1% methyl cellulose; 5 mL/kg, p.o.), indomethacin, or indomethacin vehicle (3.2% Na2 CO3, pH 8; 5 mL/kg, s.c.) in fasted male Sprague-Dawley rats (174-352 g). Three hours later, the rats were sacrificed by CO2 asphyxiation, the stomachs excised and opened, the lumen rinsed with saline, and the number and areas of gastric lesions measured.

[3] = tested on: carrageenan paw edema; assay: carrageenan paw edema model in rats; format: in vivo; details: for effect on development of paw edema (in words): 10 mg/kg i.p.; for Paw Volume 3 hours after Carrageenan injection: SQ 33,961 10 mg/kg i.p. and/or indomethacin 10 mg/kg i.p., 7-8 rats
Experimental: Paw volumes were measured before and hourly after carageenan injection in the 4 groups (N=7-8 each).

[4] = tested on: taurocholic acid-induced ulcers; assay: taurocholic acid-induced gastric ulcers in rats; format: in vivo; details: i.p.
Experimental: The following experiment was conducted to determine the cytoprotective potential of the thromboxane receptor antagonist SQ 33,961 on taurocholic acid-induced ulcers in rats.
Fasted rats were treated with either vehicle (9.5% ethanol in 0.02% Na2 CO3, pH 9; 5 mL/kg, i.p.) or SQ 33,961 (0.01 to 10 mg/kg, i.p.) 60 minutes before administration of either vehicle (0.2N HCl, pH 2; 1.0 mL, p.o.) or taurocholic acid (100 mM, pH 2; 1.0 mL, p.o.). One hour later, rats were sacrificed and gastric lesion number and areas measured. There were no gastric erosions in the groups of rats challenged with the taurocholic acid vehicle.

Q: CC(=O)Oc1ccccc1C(=O)O [Aspirin, reference compound] was tested. Which “Average Gastric Lesion Area” value ([1]; Aspirin (200 mg/kg, p.o.) + Vehicle (CONTROL), 11 rats, text calls it lesion area in mm^2) did it give?
A: The value was 10.5 ± 2.01.

Q: And the “severity of gastric lesions (in words)” value ([1]; aspirin 200 mg/kg, p.o. versus indomethacin 20 mg/kg, s.c.)?
A: Its value is “more severe gastric lesions than indomethacin”.

Q: And the “Average total lesion area” value ([1]; aspirin 200 mg/kg, p.o., three hours, N=11)?
A: Its value is 10.5±2.1 mm^2.

Q: How did the “Average Gastric Lesion Area” value ([1]; 50.0 mg/kg, i.p., N=6, Table 3, aspirin 200 mg/kg, p.o.) turn out when O=C(O)c1ccc(OCCn2ccnc2)cc1 [Dazoxiben, reference compound] was run?
A: Its value is 25.40 ± 8.50 mm^2.

Q: And the “effect on aspirin-induced gastric erosions (in words)” value ([1]; aspirin 200 mg/kg, p.o.)?
A: The value was “did not diminish aspirin-induced gastric erosions”.

Q: How did the “Gastric lesion area (mm^2)” value ([2]; Indomethacin (20 mg/kg, s.c.) + Vehicle (CONTROL), 16 rats, text calls it lesion area in mm^2) turn out when COc1ccc2c(c1)c(CC(=O)O)c(C)n2C(=O)c1ccc(Cl)cc1 [Indomethacin, reference compound] was run?
A: Its value is 2.90 ± 0.81.

Q: And the “Average total lesion area” value ([2]; indomethacin 20 mg/kg, s.c., three hours, N=16)?
A: Its value is 2.9±0.8 mm^2.

Q: What about the “effect on development of paw edema (in words)” value [3] of the same compound?
A: Its value is “significantly inhibited edema formation”.

Q: What about the “Paw Volume 3 hours after Carrageenan injection” value [3] of the same compound?
A: The value was 2.2 ± 0.08 mL.

Q: For O=C(O)Cc1ccc(CCNS(=O)(=O)c2ccc(Cl)cc2)cc1 [BM 13,505, 4-[2-(4-chlorobenzenesulfonamido)ethyl]phenylacetic acid, reference compound], which “Average Gastric Lesion Area” value ([1]; 20.00 mg/kg, i.p., N=9, Table 3, aspirin 200 mg/kg, p.o., vehicle 11.18 ± 2.35) is on record?
A: Its value is 4.68 ± 1.63 mm^2.

Q: And the “effect on aspirin-induced gastric erosions (in words)” value ([1]; aspirin 200 mg/kg, p.o.)?
A: Its value is “significantly diminished aspirin-induced gastric erosions”.

Q: How did the “reduction of gastric lesion area (in words)” value ([4]; 0.01 to 10 mg/kg) turn out when O=C(O)CCc1ccccc1C[C@@H]1[C@H](c2nc(C(=O)NCCCCC3CCCCC3)co2)[C@H]2CC[C@@H]1O2 [SQ 33,961, [1S-(1α,2α,3α,4α)]-2-[[3-[4-[[(4-cyclohexylbutyl)amino]carbonyl]-2-oxazolyl]-7-oxabicyclo[2.2.1]hept-2-yl]methyl]benzenepropanoic acid] was run?
A: Its value is “dose-related reduction of gastric lesion area”.

Q: And the ED50 ([4]; Rattus norvegicus, ip, 1 h, 60 minutes before taurocholic acid (100 mM, pH 2; 1.0 mL, p.o.), measured one hour later, read-out: ID50, reduction of gastric lesion area)?
A: Its ED50 is 0.012 mg/kg.

Q: And the “Average Gastric Lesion Area” value ([1]; 0.1 mg/kg, i.p., N=6, Table 3, aspirin 200 mg/kg, p.o.)?
A: Its value is 6.21 ± 1.66 mm^2.

Q: And the “Average Gastric Lesion Area” value ([1]; 1.0 mg/kg, i.p., N=9, Table 3, aspirin 200 mg/kg, p.o.)?
A: The value was 2.86 ± 1.02 mm^2.

Q: What about the “inhibition of gastric erosions” value ([1]; 1 mg/kg, i.p.) of the same compound?
A: The value was “about 70%”.

Q: What about the “Average Gastric Lesion Area” value ([1]; 10.0 mg/kg, i.p., N=9, Table 3, aspirin 200 mg/kg, p.o.) of the same compound?
A: Its value is 0.62 ± 0.34 mm^2.

Q: What about the “inhibition of gastric erosions” value ([1]; 10 mg/kg, i.p.) of the same compound?
A: The value was roughly 95%.

Q: And the “Average Gastric Lesion Area” value ([1]; Aspirin (200 mg/kg, p.o.) + 1 mg/kg, i.p., 9 rats)?
A: Its value is 2.86 ± 1.02.

Q: What about the “% Ulcer Inhibition” value ([1]; Aspirin (200 mg/kg, p.o.) + 1 mg/kg, i.p.) of the same compound?
A: The value was 73%.

Q: And the “Average Gastric Lesion Area” value ([1]; Aspirin (200 mg/kg, p.o.) + 10 mg/kg, i.p., 9 rats)?
A: Its value is 0.62 ± 0.34.

Q: What about the “% Ulcer Inhibition” value ([1]; Aspirin (200 mg/kg, p.o.) + 10 mg/kg, i.p.) of the same compound?
A: Its value is 94%.

Q: And the “effect on aspirin-induced gastric erosions (in words)” value ([1]; aspirin 200 mg/kg, p.o.)?
A: The value was “dose related reductions in gastric erosions”.

Q: And the “inhibition of gastric erosions” value ([2]; 1 mg/kg, i.p.)?
A: Its value is “about 70%”.

Q: What about the “inhibition of gastric erosions” value ([2]; 10 mg/kg, i.p.) of the same compound?
A: Its value is roughly 95%.

Q: And the “Gastric lesion area (mm^2)” value ([2]; Indomethacin (20 mg/kg, s.c.) + 1 mg/kg, i.p., 15 rats)?
A: Its value is 0.94 ± 0.41.

Q: What about the “% Ulcer Inhibition” value ([2]; Indomethacin (20 mg/kg, s.c.) + 1 mg/kg, i.p.) of the same compound?
A: The value was 68%.

Q: And the “Gastric lesion area (mm^2)” value ([2]; Indomethacin (20 mg/kg, s.c.) + 10 mg/kg, i.p., 15 rats)?
A: The value was 0.08 ± 0.07.

Q: And the “% Ulcer Inhibition” value ([2]; Indomethacin (20 mg/kg, s.c.) + 10 mg/kg, i.p.)?
A: Its value is 97%.

Q: What about the “effect on development of paw edema (in words)” value [3] of the same compound?
A: The value was “no significant effect on the development of paw edema”.

Q: And the “Paw Volume 3 hours after Carrageenan injection” value [3]?
A: Its value is 2.6 ± 0.11 mL.

Q: And the “effect on antiphlogistic activity of indomethacin (in words)” value ([3]; SQ 33,961 10 mg/kg i.p., indomethacin 10 mg/kg i.p.)?
A: The value was “this antiphlogistic activity was not inhibited”.

Reference: US5312818A, “Method of protecting against and/or treating ulcerative gastrointestinal conditions using a thromboxane A2 receptor antagonist and combination useful in preventing and/or treating ulcers and/or inflammation” (E. R. Squibb & Sons, Inc., priority 1992, dated 1994)
